Reference: patent US20150182456A1, “HYDROGEL VACCINE FORMULATIONS” (Sigmoid Pharma Limited, priority 2012, published 2015)

Tested on: Female C57/bl6 Mice
Assay: V. Cholerae Experiment 1: immune response in fecal pellets
Assay type: in vivo
Conditions: oral, 2.5×10^8 bacteria, 10 μg αGalCer, 3 rounds, ELISA

SMILES: CCCCCCCCCCCCCCCCCCCCCCCCCC(=O)N[C@@H](CO[C@H]1O[C@H](CO)[C@H](O)[C@H](O)[C@H]1O)[C@H](O)[C@H](O)CCCCCCCCCCCCCC [αGalCer, α-galactosylceramide]
- anti Inaba-LPS IgA and IgG titres in fecal pellets: effective adjuvant
